Assay results published in US20240239755A1, “SUBSTITUTED PYRIDAZINONES, SALTS OR N-OXIDES THEREOF AND THEIR USE AS HERBICIDALLY ACTIVE SUBSTANCES” (Bayer Aktiengesellschaft, priority 2021, published 2024).

How the values were obtained:
Type in all cases: in vivo
[1] = tested on: Amaranthus retroflexus (AMARE); test: Herbicidal post-emergence action, 1280 g/ha, AMARE; conditions: visual grading vs untreated controls
From the text: (§1) Seeds of mono- and dicotyledonous weed plants were sown in plastic pots (double sowings with one species of mono- and one species of dicotyledonous weed plants per pot), in sandy loam, covered with soil and grown under controlled growth conditions. 2 to 3 weeks after sowing, the test plants were sprayed in the single-leaf stage. The compounds according to the invention, formulated in the form of wettable powders (WP) or as emulsifiable concentrates (EC), were sprayed onto the green plant parts as an aqueous suspension or as an emulsion, with the addition of 0.5% of an additive, at an application rate of 600 litres of water per hectare (converted). The test plants were placed in the greenhouse for ca. 3 weeks under optimum growth conditions, and then the effect of the preparations was assessed visually in comparison with untreated controls (herbicidal effect in percent (%): 100% effect=plants have died, 0% effect=as control plants).
(§2) Tables B1 to B11 below, show the effects of selected compounds of the general formula (I) according to Table 1 on various harmful plants using an application rate corresponding to 1280 g/ha obtained by the experimental procedure mentioned above.

Stellaria media (STEME) [2] = test: Herbicidal post-emergence action, 1280 g/ha (Table B9); conditions: visual assessment after ca. 3 weeks vs untreated controls
From the text: as §1, with “plants). Tables B1 to B11 below, show the effects of selected compounds of the general formula (I) according to Table 1 on various harmful plants using an application rate corresponding to 1280 g/ha obtained by the experimental procedure mentioned above.” for “plants).”

Lolium rigidum (LOLRI) = test: Herbicidal pre-emergence action, 1280 g/ha (Table A5); conditions: visual grading after ca. 3 weeks vs untreated controls
From the text: (§3) Seeds of mono- and dicotyledonous weed plants were sown in plastic pots (double sowings with one species of mono- and one species of dicotyledonous weed plants per pot), in sandy loam, and covered with soil. The compounds according to the invention, formulated in the form of wettable powders (WP) or as emulsifiable concentrates (EC), were applied to the surface of the covering soil as an aqueous suspension or as an emulsion, with the addition of 0.5% of an additive, at an application rate of 600 litres of water per hectare (converted). Following treatment, the pots were placed in a greenhouse and kept under optimum growth conditions for the test plants. The visual grading of the damage to the test plants was carried out after ca. 3 weeks in comparison to untreated controls (herbicidal effect in percent (%): 100% effect=plants have died, 0% effect=as control plants). Tables A1 to A11 below, show the effects of selected compounds of the general formula (I) according to Table 1 on various harmful plants and an application rate corresponding to 1280 g/ha obtained by the experimental procedure mentioned above.

Stellaria media (STEME) [3] = test: Herbicidal pre-emergence action, 1280 g/ha (Table A9); conditions: visual grading after ca. 3 weeks vs untreated controls
From the text: as §3

Veronica persica (VERPE) = test: Herbicidal post-emergence action, 1280 g/ha, VERPE; conditions: visual grading vs untreated controls
From the text: as §1, §2

[4] = tested on: Matricaria inodora (MATIN); test: Herbicidal pre-emergence action, 1280 g/ha (Table A6); conditions: visual grading after ca. 3 weeks vs untreated controls
From the text: as §3

[5] = tested on: Matricaria inodora (MATIN); test: Herbicidal post-emergence action, 1280 g/ha (Table B6); conditions: visual assessment after ca. 3 weeks vs untreated controls
From the text: as §1, with “plants). Tables B1 to B11 below, show the effects of selected compounds of the general formula (I) according to Table 1 on various harmful plants using an application rate corresponding to 1280 g/ha obtained by the experimental procedure mentioned above.” for “plants).”

[6] = tested on: Abutilon theophrasti (ABUTH); test: Herbicidal post-emergence action, 1280 g/ha (Table B1); conditions: visual assessment after ca. 3 weeks vs untreated controls
From the text: as §1, with “plants). Tables B1 to B11 below, show the effects of selected compounds of the general formula (I) according to Table 1 on various harmful plants using an application rate corresponding to 1280 g/ha obtained by the experimental procedure mentioned above.” for “plants).”

[7] = tested on: Amaranthus retroflexus (AMARE); test: Herbicidal pre-emergence action, 1280 g/ha (Table A11); conditions: visual grading after ca. 3 weeks vs untreated controls
From the text: as §3

[8] = tested on: Abutilon theophrasti (ABUTH); test: Herbicidal post-emergence action, 320 g/ha, ABUTH; conditions: visual grading after ca. 3 weeks
From the text: as §1
(§4) Tables D1 to D8 below, show the effects of selected compounds of the general formula (I) according to Table 1 on various harmful plants using an application rate corresponding to 320 g/ha obtained by the experimental procedure mentioned above.

Kochia scoparia (KCHSC) = test: Herbicidal post-emergence action, 1280 g/ha (Table B4); conditions: visual assessment after ca. 3 weeks vs untreated controls
From the text: as §1, with “plants). Tables B1 to B11 below, show the effects of selected compounds of the general formula (I) according to Table 1 on various harmful plants using an application rate corresponding to 1280 g/ha obtained by the experimental procedure mentioned above.” for “plants).”

Stellaria media (STEME) [9] = test: Herbicidal pre-emergence action, 320 g/ha, STEME; conditions: visual grading after ca. 3 weeks
From the text: as §3, with “plants).” for “plants). Tables A1 to A11 below, show the effects of selected compounds of the general formula (I) according to Table 1 on various harmful plants and an application rate corresponding to 1280 g/ha obtained by the experimental procedure mentioned above.”
Tables C1 to C6 below, show the effects of selected compounds of the general formula (I) according to Table 1 on various harmful plants using an application rate corresponding to 320 g/ha obtained by the experimental procedure mentioned above.

Stellaria media (STEME) [10] = test: Herbicidal post-emergence action, 320 g/ha, STEME; conditions: visual grading after ca. 3 weeks
From the text: as §1, §4

[11] = tested on: Amaranthus retroflexus (AMARE); test: Herbicidal post-emergence action, 320 g/ha, AMARE; conditions: visual grading after ca. 3 weeks
From the text: as §1, §4

Structure (SMILES)	herbicidal effect AMARE [1] [%]	herbicidal effect STEME (Stellaria media (STEME) [2]) [%]	herbicidal effect LOLRI (Lolium rigidum (LOLRI)) [%]	herbicidal effect STEME (Stellaria media (STEME) [3]) [%]	herbicidal effect MATIN [4] [%]	herbicidal effect MATIN [5] [%]	herbicidal effect ABUTH [6] [%]	herbicidal effect STEME (Stellaria media (STEME) [9]) [%]	further results
COc1ccccc1Oc1c(O)c(C)nn(C)c1=O [Example I-024]	90	90	90	90					herbicidal effect VERPE (Veronica persica (VERPE)): 90%
Cc1nn(C)c(=O)c(Oc2cc(F)ccc2Br)c1OC(=O)C(C)C [Example I-089]	100		90	90	100	90	90		
Cc1ccc(C2CC2)c(Oc2c(O)c(C)nn(C)c2=O)c1 [Example I-039]	90	90							herbicidal effect AMARE [7]: 90%
Cc1nn(C)c(=O)c(Oc2cccc(F)c2C2CC2)c1O [Example I-073]	90	100	90	90	90	90	100	90	herbicidal effect ABUTH [8]: 100%; herbicidal effect KCHSC (Kochia scoparia (KCHSC)): 90%
Cc1nn(C)c(=O)c(Oc2cc(F)cc(F)c2Br)c1OC(=O)C(C)C [Example I-099]	90	90		90	90	90	100	90	herbicidal effect STEME (Stellaria media (STEME) [10]): 90%; herbicidal effect VERPE (Veronica persica (VERPE)): 90%; herbicidal effect KCHSC (Kochia scoparia (KCHSC)): 90%
Cc1nn(C)c(=O)c(Oc2cccc(C(F)(F)F)c2)c1O [Example I-005]	100	90							herbicidal effect AMARE [11]: 90%; herbicidal effect AMARE [7]: 100%
Cc1ccc(Oc2c(O)c(C)nn(C)c2=O)c(C2CC2)c1 [Example I-037]		90							
Cc1nn(C)c(=O)c(Oc2cccc(F)c2Cl)c1O [Example I-025]				100	100			100	
CCOC(=O)Oc1c(C)nn(C)c(=O)c1Oc1cc(C)ccc1C1CC1 [Example I-040]	90								
